Laboratory results: patent US9126994B2, “Crystalline form of a quinolinone-carboxamide compound” (Theravance Biopharma R&D IP, LLC, priority 2005, dated 2015)

How the values were obtained:
Format in all cases: physicochemical
[1] = Thermal analysis (DSC and TGA)
Method: Differential scanning calorimetry (DSC) was performed using a TA Instruments Model Q-100 module. Data were collected and analyzed using TA Instruments Thermal Advantage for Q Series™ software. A sample of about 1-10 mg was accurately weighed into an aluminum pan with lid. The sample was evaluated using a linear heating ramp of 10° C./min from 5° C. to, typically, 265° C. The DSC cell was purged with dry nitrogen during use. Representative DSC traces for samples of the crystalline hydrochloride salt and of the crystalline hydrate of a hydrochloride salt of compound I are shown in FIGS. 2 and 5, respectively.
Thermogravimetric analysis (TGA) was performed using a TA Instruments Model Q-500 module. Data were collected and analyzed using TA Instruments Thermal Advantage for Q Series™ software. A sample weighing about 1-5 mg was placed in an aluminum pan on a platinum cradle and scanned from ambient temperature to 300° C. with a linear heating rate of 10° C./min. The balance and furnace chambers were purged with nitrogen during use. Representative TGA traces for samples of a crystalline hydrochloride salt and of a crystalline hydrate of a hydrochloride salt of compound I are also shown in FIGS. 2 and 5, respectively.

[2] = Solid state stability assessment; settings: for change in DSC, TGA, PXRD results after storage: hydrochloride
Excerpt: At specific intervals, the contents of a representative vial was removed and analyzed by DSC, TGA, PXRD, and by HPLC for chemical purity.

[3] = Dynamic moisture sorption (DMS) assessment; settings: for sorption/desorption profile: about 2% to about 90% RH, room temperature
Method: Dynamic moisture sorption (DMS) assessment was performed at 25° C. using a VTI atmospheric microbalance, SGA-100 system (VTI Corp., Hialeah, Fla. 33016). A sample size of approximately 5-10 mg was used and the humidity was set at the ambient value at the start of the analysis. A typical DMS analysis consisted of three scans: ambient to 2% relative humidity (RH), 2% RH to 90% RH, 90% RH to 5% RH at a scan rate of 5% RH/step. The mass was measured every two minutes and the RH was changed to the next value (±5% RH) when the mass of the sample was stable to within 0.02% for 5 consecutive points. Representative DMS traces for samples of a crystalline hydrochloride salt and of a crystalline hydrate of a hydrochloride salt of compound I are shown in FIGS. 3 and 6, respectively.

[4] = comparison of DSC and TGA traces
[5] = 24 weeks at 40° C. and 75% relative humidity

For CC(C)n1c(=O)c(C(=O)N[C@H]2C[C@H]3CC[C@@H](C2)N3C[C@@H](O)CN(C)S(C)(=O)=O)cc2ccccc21.Cl [crystalline hydrochloride salt, 1-isopropyl-2-oxo-1,2-dihydroquinoline-3-carboxylic acid {(1S,3R,5R)-8-[(R)-2-hydroxy-3-(methanesulfonyl-methyl-amino)propyl]-8-azabicyclo[3.2.1]oct-3-yl}amide hydrochloride], the “temperature up to which thermally stable” value [1] was “greater than 200 °C”, the “temperature below which no significant thermal event” value ([1]; TGA / DSC trace, 10° C./min) was “about 225 °C” and the “decomposition (degradation) temperature” value [1, 4] was “above 230 °C”. The “chemical degradation by HPLC after storage” value [2, 5] was “no chemical degradation”, the “change in DSC, TGA, PXRD results after storage” value [2, 5] was “no detectable changes” and the “change in DSC, TGA, PXRD results after storage” value ([2]; 24 weeks at 40° C. and 75% relative humidity, listed as hydrochloride salt) was “no detectable change”. The “chemical purity of the stored sample (HPLC)” value ([2]; after 24 weeks of storage, open glass vials, 40° C. and 75% RH) was 99.6%, the “weight change (hygroscopicity)” value ([3]; 2% to 90% relative humidity, room temperature (25° C.)) was “less than 0.2%” and the sorption/desorption profile [3] was “reversible”. The deliquescence ([3]; exposed to up to 90% relative humidity at room temperature) was “neither the crystalline hydrochloride salt of the invention nor the hydrate thereof is deliquescent”.

In the case of CC(C)n1c(=O)c(C(=O)N[C@H]2C[C@H]3CC[C@@H](C2)N3C[C@@H](O)CN(C)S(C)(=O)=O)cc2ccccc21.Cl.O [crystalline hydrate, crystalline hydrate of hydrochloride salt of 1-isopropyl-2-oxo-1,2-dihydroquinoline-3-carboxylic acid {(1S,3R,5R)-8-[(R)-2-hydroxy-3-(methanesulfonyl-methyl-amino)propyl]-8-aza-bicyclo[3.2.1]oct-3-yl}amide], the “decomposition (degradation) temperature” value [1, 4] is reported as “above 250 °C”, the “decomposition at the melt transition” value ([1]; comparison of DSC and TGA traces, melt about 225° C. to about 250° C.) is reported as “not significant” and the weight gain ([3]; 40% RH to 75% RH) is reported as “less than 0.25%”. For the same molecule, the sorption/desorption profile [3] was “reversible” and the “weight loss on drying” value ([3]; dried from ambient to 2% RH, regained from 2% RH to 40% RH) was about 2.3%.
